Reference: patent publication US20260062677A1, “ECTODERMAL MESENCHYMAL STEM CELLS AND METHOD FOR PRODUCING SAME” (STEMRIM INC., priority 2017, published 2026)

Columns and labels:
[1] = system: colony-forming Pα cells in peripheral blood; experiment: Colony assay of cultured peripheral blood after HA1-44 peptide administration; format: in vivo, mouse; details: FIG. 24
Description: The following method was used to recover cells from peripheral blood. Approximately 800 to 1000 μL of peripheral blood was collected from the heart under general anesthesia (using a 1 mL syringe containing heparin). To remove red blood cells, Hetasep (STEMCELL Technologies, Inc., Cat No. ST-07906) at equal amount of the collected blood was added, the mixture was centrifuged at 100 G for 2 minutes, and incubated at room temperature for 15 minutes, then the supernatant was recovered. The supernatant was subjected to the next experiment as a sample containing nuclear cells in peripheral blood.
The supernatant obtained by the above procedure (sample containing nucleated cells in peripheral blood) was seeded in a 6-well plate coated with collagen I (Corning Incorporated, Cat No. 356400), and cultured for 10 days under a condition of 37° C., 5% CO2, 5% 02 using a medium containing 1% L-glutamine (NACALAI TESQUE, INC.), 10 μM ROCK inhibitor (Y27632, Tocris Bioscience) and 1% penicillin/streptomycin (NACALAI TESQUE, INC.) in an expansion medium prepared using a MesenCult Expansion Kit (STEMCELL Technologies, Inc., Cat No. ST-05513) according to the manual of the kit (all concentrations described are final concentrations). The medium was replaced with a fresh medium twice a week during the culture period. […]

[2] = system: Pα^lin+ cells in grafted skin; experiment: Parabiosis model (Pα-Cre::Rosa26-EYFP / wild-type) with epidermolysis bullosa mouse skin graft; format: in vivo; details: peptide given to the Pα-Cre::Rosa26-EYFP partner, epidermolysis bullosa skin grafted on the wild-type partner; FIG. 25
Description: (§1) A parabiosis model was created using a 6-week old male wild-type mouse and a 6-week old male cell lineage tracing mouse with reference to Kamran P et al. J Vis Exp. 2013 Oct. 6; (80). Two mice were simultaneously subjected to general anesthetic induction with isoflurane, and positioned on a heat pad. The body side surfaces opposite to each other of the two mice were shaved, and the skin was removed approximately 5 mm wide from the elbow joint to the knee joint. The dorsal skin was continuously sutured with 5-0 VICRYL. The elbow joints and knee joints each opposite to each other were sutured with 3-0 VICRYL. The abdominal skin was also continuously sutured with 5-0 VICRYL. The mice were left on the heat pad until awakened from anesthesia. To avoid restricting activity, up to one pair were raised per cage, and scattered food was offered.
(§2) The present inventors have previously identified a peptide (HA1-44 peptide) consisting of the amino acid sequence of positions 1-44 (SEQ ID NO: 1) at the N-terminus of HMGB1 protein as a domain having the activity of mobilizing bone marrow-derived Pα-positive mesenchymal stem cells into peripheral blood. […] Furthermore, a cartilage injury was created to the knee joint of a wild-type mouse alone that was not a parabiosis model, then the HA1-44 peptide or saline was administered.

[3] = system: Pα^+ and Prx1^lin− cells in the skin graft; experiment: Parabiosis model (Pα-H2B-GFP::Prx1-Cre::Rosa26-tdTomato / wild-type) with wild-type neonate skin graft; format: in vivo, mouse; details: peptide given to the reporter partner, neonate skin grafted on back of the wild-type partner; FIG. 26
Description: as §1, §2

[4] = system: P0^lin+ cells at the cartilage injury site; experiment: Parabiosis (P0-Cre::Rosa26-tdTomato / wild-type) and knee cartilage defect model; format: in vivo, mouse; details: 100 μg via tail vein, twice a week until 4 weeks; knee joint collected at 12 weeks; versus saline (no accumulation); FIG. 27
Description: as §1
A parabiosis model was created using a 6-week old male wild-type mouse and a 6-week old male P0-Cre::Rosa26-tdTomato mouse using the method described in 3. above. After completion of the blood chimera at 4 weeks after operation, a 0.5×0.5×0.5 mm cartilage defect was created in the knee joint of the wild-type mouse using a 0.5 mm-diameter hand-turned drill (manufactured by MEISINGER USA, L.L.C.). […] It was sliced at a thickness of 10 μm using a cryostat, and the distribution of Tomato-positive cells was analyzed by confocal microscopy. […]

[5] = system: knee cartilage injury site; experiment: Knee cartilage defect model in wild-type mouse, safranin O staining; format: in vivo; details: wild-type mouse alone; 100 μg via tail vein twice a week until 4 weeks; 2, 4, 8 and 12 weeks; saline group only fibrous cartilage; FIG. 28
Description: A parabiosis model was created using a 6-week old male wild-type mouse and a 6-week old male P0-Cre::Rosa26-tdTomato mouse using the method described in 3. above. After completion of the blood chimera at 4 weeks after operation, a 0.5×0.5×0.5 mm cartilage defect was created in the knee joint of the wild-type mouse using a 0.5 mm-diameter hand-turned drill (manufactured by MEISINGER USA, L.L.C.). Shortly after the cartilage defect was created, 100 μg of HA1-44 peptide diluted with 100 μL of saline was administered from the tail vein and subsequently administered at the same dose twice a week until 4 weeks after operation. To the control group, 100 μL of saline was administered to each mouse from the tail vein on the same schedule as in the HA1-44 peptide administration group. A knee joint was collected 12 weeks after knee cartilage defect creation, then fixation with 4% paraformaldehyde (overnight), deashing with 0.5 M EDTA solution (3 days), and 30% sucrose replacement (1 day) were performed to create a frozen block. It was sliced at a thickness of 10 μm using a cryostat, and the distribution of Tomato-positive cells was analyzed by confocal microscopy. […]

vertebral Pα cells = experiment: Transcriptome and IPA pathway analysis of vertebral Pα cells after administration; format: in vivo, mouse; details: compared to control group (saline)
Description: RNA was extracted from the cell population, and an RNA-seq library was created according to Smart-seq2 protocol (Nature Protocols 9, 171-181 (2014) doi: 10.1038/nprot.2014.006). The obtained library was sequenced with Nextseq 500 (Illumina, Inc.) using a nextseq high output kit (37 bp pair end reads). Using bcl2fastq v2.17.1.14 of Illumina, Inc. with default parameters and optional --no-lane-splitting, conversion of base calls to fastq format and demultiplex were performed. Reads were trimmed using TrimGalore (http://www.bioinformatics.babraham.ac.uk/projects/trim_galore/), and mapping and counting (quantification) were performed using RSEM (Li et al., BMC Bioinformatics 12, 323 (2011); version STAR-2.5.2b). Differential expression analysis among samples was performed using DESeq2 (Love et al., Genome Biol. 15, 550 (2014)). Differentially Expressed Genes (DEGs) were uploaded to the Ingenuity Pathway Analysis (IPA) software (https://www.qiagenbioinformatics.com) to extract the most relevant biological pathways and functions to DEGs. Clustering analysis was performed using ICGS algorithm of AltAnalyze_v.2.1.0-Py based on log 2 converted values of 1-added TPM (Transcripts Per kilobase Million) counts obtained with RSEM (log 2 (TPM+1)). […]

[6] = system: CD45-negative, TER-119-negative, and PDGFRβ-positive cells; experiment: Phase I clinical study, cells in circulating blood; format: in vivo; details: human, intravenous administration; peripheral blood mononuclear cell fractions before, 8 h and 24 h after administration; FIG. 33
Description: Since PDGFRβ is a marker of human mesenchymal stem cells, it is believed that a marker (including a combination of multiple markers) defining iCFPα cells and vertebral CFPα cells in peripheral blood described herein, in which the term “PDGFRα” is replaced with the term “PDGFRβ”, will also be a marker (including a combination of multiple markers) defining EMSC (colony-forming PDGFR-positive cells in peripheral blood or in vertebra) in humans.

## HA1-44 peptide: peptide consisting of amino acid sequence of positions 1-44 (MGKGDPKKPRGKMSSYAFFVQTCREEHKKKHPDASVNFSEFSKK) at the N-terminus of A-box of HMGB1 protein
[1]; lineage tracing mice, versus control group (saline administration)
  number of colonies obtained by culturing peripheral blood: more colonies than peripheral blood in the control group
[1]; peripheral blood of lineage tracing mice given the peptide
  markers of the colonies obtained (Pα, Prx1 lineage): All of the colonies were Pα-positive, and the majority of which were Prx1 lineage-negative
[2]
  Pα^lin+ cells expressing type 7 collagen in regenerated epithelial tissue of the skin graft: presence of Pα^lin+ cells expressing type 7 collagen was confirmed
[3]
  Pα^+ and Prx1^lin− cells in the skin graft: presence of Pα^+ and Prx1^lin− cells in the skin graft was confirmed
[4]
  accumulation of P0^lin+ cells at the cartilage injury site: accumulation of P0^lin+ cells was confirmed
[5]
  cartilage regeneration at the cartilage injury site: hyaline cartilage was regenerated
Vertebral Pα cells; FIG. 31
  pathways associated with EIF2 signaling, regulation of eIF4 and p70S6K signaling, and mTOR signaling: activated
Vertebral Pα cells; FIG. 32
  expression of cell death-related genes: suppressed
[6]
  CD45-negative, TER-119-negative, and PDGFRβ-positive cells in circulating blood: increase
